Test results from PubChem BioAssay (NCI).
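Five compound concentrations were applied to cells in 96-well plates for 48 hours; endpoints were derived by simple linear interpolation of the resulting dose-response curve. The concentration for 50% growth inhibition is given as GI50. TGI denotes the concentration required for complete inhibition of growth.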

Key:
Test in all cases: NCI anticancer screen, dose series, 48 h
[1] = test system: 786-0 renal
[2] = test system: A498 renal
[3] = test system: A549 NSCLC
[4] = test system: ACHN renal
[5] = test system: BT-549 breast
[6] = test system: CAKI-1 renal
[7] = test system: CCRF-CEM leukemia
[8] = test system: COLO 205 colon
[9] = test system: DU-145 prostate
[10] = test system: EKVX NSCLC
[11] = test system: HCC-2998 colon
[12] = test system: HCT-116 colon
[13] = test system: HCT-15 colon
[14] = test system: HL-60(TB) leukemia
[15] = test system: HOP-62 NSCLC
[16] = test system: HOP-92 NSCLC
[17] = test system: HT29 colon
[18] = test system: IGROV1 ovarian
[19] = test system: KM12 colon
[20] = test system: LOX IMVI melanoma
[21] = test system: M14 melanoma
[22] = test system: MALME-3M melanoma
[23] = test system: MCF7 breast
[24] = test system: MDA-MB-231 breast
[25] = test system: MDA-MB-435
[26] = test system: MOLT-4 leukemia
[27] = test system: NCI-H226 lung
[28] = test system: NCI-H23 lung
[29] = test system: NCI-H460 lung
[30] = test system: NCI-H522 lung
[31] = test system: NCI/ADR-RES ovarian
[32] = test system: OVCAR-3 ovarian
[33] = test system: OVCAR-4 ovarian
[34] = test system: OVCAR-5 ovarian
[35] = test system: OVCAR-8 ovarian
[36] = test system: PC-3 prostate
[37] = test system: RPMI-8226 leukemia
[38] = test system: RXF 393 renal
[39] = test system: SF-268 CNS
[40] = test system: SF-295 CNS
[41] = test system: SF-539 CNS
[42] = test system: SK-MEL-2 melanoma
[43] = test system: SK-MEL-28 melanoma
[44] = test system: SK-MEL-5 melanoma
[45] = test system: SK-OV-3 ovarian
[46] = test system: SN12C renal
[47] = test system: SNB-19 CNS
[48] = test system: SNB-75 CNS
[49] = test system: SR leukemia
[50] = test system: SW-620 colon
[51] = test system: TK-10 renal
[52] = test system: U251 CNS
[53] = test system: UACC-257 melanoma
[54] = test system: UACC-62 melanoma
[55] = test system: UO-31 renal
[56] = test system: HS 578T breast

O=C(CCN1CCCC1)Nc1ccc2c(NCCc3ccccc3)c3ccccc3nc2c1
GI50 [1]: 0.819 µM
TGI [1]: 2.2 µM
GI50 [2]: 0.422 µM
TGI [2]: 1.8 µM
GI50 [3]: 0.334 µM
TGI [3]: 1.7 µM
GI50 [4]: 0.51 µM
TGI [4]: 2.02 µM
GI50 [5]: 1.19 µM
TGI [5]: 2.66 µM
GI50 [6]: 1.5 µM
TGI [6]: 5.68 µM
GI50 [7]: 0.311 µM
TGI [7]: 1.77 µM
GI50 [8]: 0.297 µM
TGI [8]: 1.19 µM
GI50 [9]: 0.367 µM
TGI [9]: 1.36 µM
GI50 [10]: 0.463 µM
TGI [10]: 2.16 µM
GI50 [11]: 0.51 µM
TGI [11]: 1.98 µM
GI50 [12]: 0.354 µM
TGI [12]: 1.38 µM
GI50 [13]: 1.73 µM
TGI [13]: 4.85 µM
GI50 [14]: 0.389 µM
TGI [14]: 1.67 µM
GI50 [15]: 0.389 µM
TGI [15]: 1.76 µM
GI50 [16]: 0.332 µM
TGI [16]: 1.51 µM
GI50 [17]: 0.368 µM
TGI [17]: 1.75 µM
GI50 [18]: 0.366 µM
TGI [18]: 1.63 µM
GI50 [19]: 0.466 µM
TGI [19]: 1.8 µM
GI50 [20]: 0.305 µM
TGI [20]: 1.22 µM
GI50 [21]: 0.5 µM
TGI [21]: 1.81 µM
GI50 [22]: 0.384 µM
TGI [22]: 1.45 µM
GI50 [23]: 0.305 µM
TGI [23]: 1.14 µM
GI50 [24]: 0.452 µM
TGI [24]: 1.82 µM
GI50 [25]: 0.416 µM
TGI [25]: 1.52 µM
GI50 [26]: 0.296 µM
TGI [26]: 1.56 µM
GI50 [27]: 0.374 µM
TGI [27]: 1.95 µM
GI50 [28]: 0.374 µM
TGI [28]: 1.39 µM
GI50 [29]: 0.296 µM
TGI [29]: 1.05 µM
GI50 [30]: 0.308 µM
TGI [30]: 1.27 µM
GI50 [31]: 12 µM
TGI [31]: > 62.9 µM
GI50 [32]: 0.454 µM
TGI [32]: 1.73 µM
GI50 [33]: 0.326 µM
TGI [33]: 1.19 µM
GI50 [34]: 0.506 µM
TGI [34]: 2.13 µM
GI50 [35]: 0.532 µM
TGI [35]: 2.72 µM
GI50 [36]: 0.406 µM
TGI [36]: 1.55 µM
GI50 [37]: 0.32 µM
TGI [37]: 1.15 µM
GI50 [38]: 0.51 µM
TGI [38]: 1.75 µM
GI50 [39]: 0.481 µM
TGI [39]: 1.91 µM
GI50 [40]: 0.381 µM
TGI [40]: 1.53 µM
GI50 [41]: 0.435 µM
TGI [41]: 1.55 µM
GI50 [42]: 0.463 µM
TGI [42]: 1.63 µM
GI50 [43]: 0.599 µM
TGI [43]: 1.87 µM
GI50 [44]: 1.27 µM
TGI [44]: 2.55 µM
GI50 [45]: 0.422 µM
TGI [45]: 2.07 µM
GI50 [46]: 0.358 µM
TGI [46]: 1.45 µM
GI50 [47]: 0.385 µM
TGI [47]: 1.61 µM
GI50 [48]: 0.453 µM
TGI [48]: 1.7 µM
GI50 [49]: 0.171 µM
TGI [49]: 1.56 µM
GI50 [50]: 0.3 µM
TGI [50]: 1.36 µM
GI50 [51]: 1.06 µM
TGI [51]: 2.96 µM
GI50 [52]: 0.329 µM
TGI [52]: 1.55 µM
GI50 [53]: 1.02 µM
TGI [53]: 2.71 µM
GI50 [54]: 0.316 µM
TGI [54]: 1.13 µM
GI50 [55]: 1.49 µM
TGI [55]: 3.69 µM

N=C(N)c1ccc(-c2ccc(-c3cncc4ccccc34)s2)s1
GI50 [9]: 1.55 µM
TGI [9]: 3 µM
GI50 [56]: 2.22 µM
TGI [56]: 4.75 µM
GI50 [35]: 1.83 µM
TGI [35]: 4.4 µM
GI50 [53]: 2.47 µM
TGI [53]: 5.23 µM
